From article PMC5910287 (ACS chemical biology, 2018)

System: L. lactis HP
Assay: Minimal inhibitory concentrations determined in liquid media
Format: cell-based, Lactococcus lactis
Details: serial two-fold dilution, Fig. S12

lacticin 481 [wt-lacticin 481]
Minimal inhibitory concentration: 0.39 µM
